# Key:
# MIAPaCa-2 cells [1] = assay: MTT cell viability assay, MIAPaCa-2; type: cell-based, human; conditions: Homo sapiens, MIA PaCa-2, 48 h, read-out: Cytotoxicity (IC50) MIAPaCa-2, MTT, 48 h
# Experimental: (§1) Cell viability assay: The cell viability was determined by the standard MTT assay method. Briefly, Panc-1, HCT-116, A549, PC3, MIAPaca-2, HT-29, MDA-MB-231, MCF7 cells, and fR2cells were seeded in 96 well tissue culture plates (Nunc) at a density of 4×10^3 cells per well and treated with varying concentrations of the test compounds in triplicates. DMSO was taken as a vehicle, and its final concentration was maintained at 0.2% in the culture medium. Doxorubicin was employed as a positive control. After 44 h of incubation, MTT dye solution was added into the medium, and cells were incubated for another 4 h at 37° C. in 5% CO2. The amount of colored formazan derivatives formed was measured by taking optical density (OD) using a microplate reader (TECAN, Infinite M200 Pro) at 570 nm, and the percentage of cell viability was calculated. The IC50 values were calculated using GraphPad Prism software (Version 5.0).
# [2] = system: lung adenocarcinoma cells (A549); assay: MTT cell viability assay, A549; type: cell-based; conditions: Homo sapiens, A549, 48 h, read-out: Cytotoxicity (IC50) A549, MTT, 48 h
# Experimental: as §1
# MCF-7 cells = assay: MTT cell viability assay, MCF-7; type: cell-based; conditions: Homo sapiens, MCF7, 48 h, read-out: Cytotoxicity (IC50) MCF-7, MTT, 48 h; breast cancer cell of epithelial origin
# Experimental: as §1
# MIAPaCa-2 cells [3] = assay: Wound healing assay; type: cell-based, human; conditions: MIAPaCa-2, 1, 2 and 3 μM, 36 h, compared to 2, 2b, 4, 4a, 4b
# Experimental: Wound healing assay. MIAPaCa-2 cells (1×10^6) were seeded onto 6 well plates and grown up to more than 90% confluency, and wounds were created with sterile pipette tip (20-200 μL), and the media was replaced with serum-free media. Subsequently, the cells were treated with vehicle (DMSO), compounds 3 μM of 2 and 4, and their derivatives, i.e., 1, 2 and 3 μM of 2a, 2b, 4a, 4b for 36 h. Upon termination, the cells were washed with PBS, and images were captured under a microscope at 20× magnification (FIG. 4).
# [4] = system: 4T1 mouse mammary carcinoma cells; assay: 4T1 allograft breast cancer model, anti-tumor and anti-metastatic efficacy; type: in vivo
# Experimental: In vivo anti-metastatic and anti-tumor efficacy studies. 4T1 mouse mammary carcinoma cells is a highly aggressive cell line that forms tumors when grafted in Balb/c mice. […] All the in vivo experimental protocols were approved by the Institutional Animal Ethics Committee, CPCSEA, of the Indian Institute of Integrative Medicine, Jammu. The animals were maintained at 22° C. with a 12 h light-dark cycle and free access to feed and water inside the institutional animal house. Proper care was taken to maintain them in a healthy condition and to avoid any risk of possible pathogenic contaminations. For subcutaneous implantation of 4T1 cells, the Balb/c mice were distributed into four groups bearing five mice in each group. For tumor induction, 1.5 million 4T1 cells were suspended in serum-free media and injected into the mammary pad of the animal and kept in the animal house for tumor induction. After the tumor reached an adequate size (30-150 mm^3) the mice in the allotted groups were treated with vehicle (normal saline), 15 and 30 mg/kg 2a & 30 mg/kg DIM (positive control) for every alternate day and was continued for two weeks. After the treatment, the mice were sacrificed by cervical dislocation, and the tumor was dissected out from the mammary pad, the tumor volume was measured, and images were taken. Subsequently, to examine the anti-metastatic property of the compound 2a, the chest cavity was dissected to remove the lungs, and after washing with PBS, the metastatic nodules in the lung due to 4T1 migration were checked and subsequently counted.
# The anti-proliferative as well as anti-metastatic role of compound 2a was studied in 4T1 allograft breast cancer model. Briefly, 1.5×10^6 4T1 mammary breast cancer cells were injected in mouse mammary pad and kept undisturbed until the formation of tumor. Subsequently, the mice were treated with 15 and 30 mg/kg of compound 2a along with a positive control 30 mg/kg di-indoyl methane (DIM) molecule and normal saline as vehicle. The drugs were administered intraperitonially for each alternate day for 2 weeks. The animals were sacrificed and tumours were harvested from the mammary pad and tumor weight was measured (FIG. 7a & b). Moreover, the lungs were also removed and photographed to study the presence of metastatic patches. […] Furthermore, the tumors were subjected to tissue lysis and immunoblot analysis was performed to study the expression of Snail-1. Twist-1, STAT-3, Vimentin and E-cadherin.
# [5] = tumor lysate immunoblot, 30 mg/kg
compound,measurement,setting,value
"CCCCCc1cc(O[C@@H]2OC(CO)[C@@H](O)C(O)C2O)c2c(c1)OC(C)(C)[C@@H]1CCC(C)=C[C@@H]21 (stereo partly drawn) [Compound 2a, Δ^9-tetrahydrocannabinol-1-O-β-D-glucopyranoside]",IC50,MIAPaCa-2 cells [1],1420 nM
same,IC50,[2],1440 nM
same,IC50,MCF-7 cells,15400 nM
same,anti-migratory properties in wound healing assay,MIAPaCa-2 cells [3],most prominent anti-migratory properties
same,metastatic white patches on lungs,"[4]; Balb/c mice, 4T1, 15 & 30 mg/kg intraperitoneal, alternate day for 2 weeks",white patches were not observed
same,tumor weight,"[4]; Balb/c mice, 4T1, 15 and 30 mg/kg intraperitoneal, alternate day for 2 weeks, vs normal saline",drastically reduced
same,tumor E-cadherin level,[4]; [5],increased considerably
same,tumor expression of Twist-1,[4]; [5],curbed
same,"tumor expression of Snail-1, STAT-3 and Vimentin","[4]; tumor lysate immunoblot, 15 and 30 mg/kg",decreases significantly

# Reference: US20240382509A1, “Cannabinoids C- and O-glycosides possessing anti-proliferative and anti-metastatic properties and process for preparation thereof” (Council of Scientific and Industrial Research, priority 2021, published 2024)
